Assays:
Assay in all cases: AK assay 384-well format, Prestwick library screening
[1] = system: A. baumannii strain 98-37-09; format: cell-based, Acinetobacter baumannii; settings: for AK-based Prestwick Library Screening Results: A. baumannii (increase in extracellular AK activity): 384-well
[2] = system: E. faecium; format: cell-based, Enterococcus faecium; settings: for AK-based Prestwick Library Screening Results: E. faecium (increase in extracellular AK activity): 384-well
[3] = system: K. pneumoniae; format: cell-based, Klebsiella pneumoniae; settings: for AK-based Prestwick Library Screening Results: K. pneumoniae (increase in extracellular AK activity): 384-well
[4] = system: P. aeruginosa; format: cell-based, Pseudomonas aeruginosa; settings: for AK-based Prestwick Library Screening Results: P. aeruginosa (increase in extracellular AK activity): 384-well
[5] = system: S. aureus strain USA300-0114; format: cell-based, Staphylococcus aureus; settings: for AK-based Prestwick Library Screening Results: S. aureus (increase in extracellular AK activity): 384-well
[6] = system: E. coli; format: cell-based, Escherichia coli; settings: for AK-based Prestwick Library Screening Results: E. coli (increase in extracellular AK activity): 384-well
[7] = system: E. cloacae; format: cell-based, Enterobacter cloacae; settings: for AK-based Prestwick Library Screening Results: E. cloacae (increase in extracellular AK activity): 384-well
[8] = planktonic A. baumannii, 50 μM final drug concentration, cutoff for positive-scoring molecules 3-fold increase
[9] = planktonic E. faecium, 50 μM final drug concentration, cutoff for positive-scoring molecules 3-fold increase
[10] = planktonic K. pneumoniae, 50 μM final drug concentration, cutoff for positive-scoring molecules 3-fold increase
[11] = planktonic P. aeruginosa, 50 μM final drug concentration, cutoff for positive-scoring molecules 3-fold increase
[12] = planktonic S. aureus, 50 μM final drug concentration, cutoff for positive-scoring molecules 3-fold increase
[13] = planktonic E. coli, 50 μM final drug concentration, cutoff for positive-scoring molecules 3-fold increase
[14] = planktonic E. cloacae, 50 μM final drug concentration, cutoff for positive-scoring molecules 3-fold increase
[15] = planktonic A. baumannii, 50 μM final drug concentration, […]
[16] = planktonic E. faecium, 50 μM final drug concentration, […]
[17] = planktonic K. pneumoniae, 50 μM final drug concentration, […]
[18] = planktonic P. aeruginosa, 50 μM final drug concentration, […]
[19] = planktonic S. aureus, 50 μM final drug concentration, […]
[20] = planktonic E. coli, 50 μM final drug concentration, […]
[21] = planktonic E. cloacae, 50 μM final drug concentration, […]
[22] = 50 μM final drug concentration, 384-well format, cutoff for positive-scoring molecules 3-fold increase

In the case of Clofilium tosylate, the “AK-based Prestwick Library Screening Results: A. baumannii (increase in extracellular AK activity)” value [1, 8] is reported as 1.6, the “AK-based Prestwick Library Screening Results: E. faecium (increase in extracellular AK activity)” value [2, 9] is reported as 1.4 and the “AK-based Prestwick Library Screening Results: K. pneumoniae (increase in extracellular AK activity)” value [3, 10] is reported as 1.5. The “AK-based Prestwick Library Screening Results: P. aeruginosa (increase in extracellular AK activity)” value [4, 11] was 1.3, the “AK-based Prestwick Library Screening Results: S. aureus (increase in extracellular AK activity)” value [5, 12] was 1.2 and the “AK-based Prestwick Library Screening Results: E. coli (increase in extracellular AK activity)” value [6, 13] was 1.5. For the same substance, the “AK-based Prestwick Library Screening Results: E. cloacae (increase in extracellular AK activity)” value [7, 14] was 1.2.

In the case of Colistin sulfate, the “AK-based Prestwick Library Screening Results, A. baumannii (increase in extracellular AK activity)” value [1, 15] is reported as 10.0, the “AK-based Prestwick Library Screening Results, E. faecium (increase in extracellular AK activity)” value [2, 16] is reported as 1.0 and the “AK-based Prestwick Library Screening Results, K. pneumoniae (increase in extracellular AK activity)” value [3, 17] is reported as 24.1. For the same substance, the “AK-based Prestwick Library Screening Results, P. aeruginosa (increase in extracellular AK activity)” value [4, 18] was 23.6, the “AK-based Prestwick Library Screening Results, S. aureus (increase in extracellular AK activity)” value [5, 19] was 0.6 and the “AK-based Prestwick Library Screening Results, E. coli (increase in extracellular AK activity)” value [6, 20] was 42.2. The “AK-based Prestwick Library Screening Results, E. cloacae (increase in extracellular AK activity)” value [7, 21] was 0.7.

With Cotinine (−) the “AK-based Prestwick Library Screening Results, A. baumannii (increase in extracellular AK activity)” value [1, 22] was 0.3, the “AK-based Prestwick Library Screening Results, E. faecium (increase in extracellular AK activity)” value [2, 22] was 0.8 and the “AK-based Prestwick Library Screening Results, K. pneumoniae (increase in extracellular AK activity)” value [3, 22] was 0.4. The “AK-based Prestwick Library Screening Results, P. aeruginosa (increase in extracellular AK activity)” value [4, 22] was 0.3, the “AK-based Prestwick Library Screening Results, S. aureus (increase in extracellular AK activity)” value [5, 22] was 0.4 and the “AK-based Prestwick Library Screening Results, E. coli (increase in extracellular AK activity)” value ([6]; 50 μM final drug concentration, 384-well format, […]) was 0.5. For the same substance, the “AK-based Prestwick Library Screening Results, E. cloacae (increase in extracellular AK activity)” value [7, 22] was 0.3.

With Cyanocobalamin the “AK-based Prestwick Library Screening Results, A. baumannii (increase in extracellular AK activity)” value [1, 8] was 0.8, the “AK-based Prestwick Library Screening Results, E. faecium (increase in extracellular AK activity)” value [2, 9] was 0.8 and the “AK-based Prestwick Library Screening Results, K. pneumoniae (increase in extracellular AK activity)” value [3, 10] was 0.6. For the same substance, the “AK-based Prestwick Library Screening Results, P. aeruginosa (increase in extracellular AK activity)” value [4, 11] was 0.7, the “AK-based Prestwick Library Screening Results, S. aureus (increase in extracellular AK activity)” value [5, 12] was 0.5 and the “AK-based Prestwick Library Screening Results, E. coli (increase in extracellular AK activity)” value [6, 20] was 0.8. For the same substance, the “AK-based Prestwick Library Screening Results, E. cloacae (increase in extracellular AK activity)” value [7, 14] was 1.2.

In the case of Cytisine (−), the “AK-based Prestwick Library Screening Results, A. baumannii (fold increase in extracellular AK activity)” value [1] is reported as 1.4, the “AK-based Prestwick Library Screening Results, E. faecium (fold increase in extracellular AK activity)” value [2] is reported as 1.0 and the “AK-based Prestwick Library Screening Results, K. pneumoniae (fold increase in extracellular AK activity)” value [3] is reported as 1.2. For the same substance, the “AK-based Prestwick Library Screening Results, P. aeruginosa (fold increase in extracellular AK activity)” value [4] was 1.2, the “AK-based Prestwick Library Screening Results, S. aureus (fold increase in extracellular AK activity)” value [5] was 1.0 and the “AK-based Prestwick Library Screening Results, E. coli (fold increase in extracellular AK activity)” value [6] was 1.3. The “AK-based Prestwick Library Screening Results, E. cloacae (fold increase in extracellular AK activity)” value [7] was 1.5.

Deptropine citrate was tested, and the “AK-based Prestwick library screening result, A. baumannii (fold increase in extracellular AK activity)” value [1, 15] was 1.3, the “AK-based Prestwick library screening result, E. faecium (fold increase in extracellular AK activity)” value [2, 16] was 1.1 and the “AK-based Prestwick library screening result, K. pneumoniae (fold increase in extracellular AK activity)” value [3, 17] was 0.9. The “AK-based Prestwick library screening result, P. aeruginosa (fold increase in extracellular AK activity)” value [4, 18] was 1.0, the “AK-based Prestwick library screening result, S. aureus (fold increase in extracellular AK activity)” value [5, 19] was 1.1 and the “AK-based Prestwick library screening result, E. coli (fold increase in extracellular AK activity)” value [6, 20] was 1.5. The “AK-based Prestwick library screening result, E. cloacae (fold increase in extracellular AK activity)” value [7, 21] was 1.6.

Dihydroergotamine tartrate was tested, and the “AK-based Prestwick Library Screening Results: A. baumannii (increase in extracellular AK activity)” value [1, 8] was 1.5, the “AK-based Prestwick Library Screening Results: E. faecium (increase in extracellular AK activity)” value [2, 9] was 1.0 and the “AK-based Prestwick Library Screening Results: K. pneumoniae (increase in extracellular AK activity)” value [3, 10] was 0.9. The “AK-based Prestwick Library Screening Results: P. aeruginosa (increase in extracellular AK activity)” value [4, 11] was 1.2, the “AK-based Prestwick Library Screening Results: S. aureus (increase in extracellular AK activity)” value [5, 12] was 1.0 and the “AK-based Prestwick Library Screening Results: E. coli (increase in extracellular AK activity)” value [6, 20] was 1.3. For the same substance, the “AK-based Prestwick Library Screening Results: E. cloacae (increase in extracellular AK activity)” value [7, 14] was 1.3.

Dihydroergotoxine mesylate was tested, and the “AK-based Prestwick Library Screening Results, A. baumannii (increase in extracellular AK activity)” value [1, 8] was 0.5, the “AK-based Prestwick Library Screening Results, E. faecium (increase in extracellular AK activity)” value [2, 9] was 0.8 and the “AK-based Prestwick Library Screening Results, K. pneumoniae (increase in extracellular AK activity)” value [3, 10] was 0.5. The “AK-based Prestwick Library Screening Results, P. aeruginosa (increase in extracellular AK activity)” value [4, 11] was 0.4, the “AK-based Prestwick Library Screening Results, S. aureus (increase in extracellular AK activity)” value [5, 12] was 0.4 and the “AK-based Prestwick Library Screening Results, E. coli (increase in extracellular AK activity)” value [6, 13] was 0.6. The “AK-based Prestwick Library Screening Results, E. cloacae (increase in extracellular AK activity)” value [7, 14] was 0.6.
